Where two headings read alike, the source gives them in different places.
Assays:
[1] = Cytotoxicity in mock-infected MT-4 cells (MTT); assay type: cell-based; conditions: human, 50% cytotoxic concentration
Protocol: (§1) A rapid and automated assay procedure was used for the in vitro evaluation of anti-HIV agents. An HTLV-1 transformed T4-cell line MT-4, which was previously shown to be highly susceptible to and permissive for HIV infection, served as the target cell line. Inhibition of the HIV-induced cytopathogenic effect was used as the end point. The viabitlity of both HIV- and mock-infected cells was assessed spectrophotometrically via in situ reduction of 3-(4,5-dimethylthiazol-2-yl)-2,5-diphenyltetrazolium bromide (MTT). The 50% cytotoxic concentration (CC50 in μM or μg/ml) was defined as the concentration of compound that reduced the absorbance of the mock-infected control sample by 50%. The percent protection achieved by the compound in HIV-infected cells was calculated by the following formula:
(§2) [formula] whereby (ODT)HIV is the optical density measured with a given concentration of the test compound in HIV-infected cells; (ODC)HIV is the optical density measured for the control untreated HIV-infected cells; (ODC)MOCK is the optical density measured for the control untreated mock-infected cells; all optical density values were determined at 540 nm. The dose achieving 50% protection according to the above formula was defined as the 50% inhibitory concentration (EC50 in μM or μg/ml). The ratio of CC50 to EC50 was defined as the selectivity index (SI). […] Examples of inhibition of cell proliferation by particular compounds of the invention can be found by looking at the respective CC50 values in the MT-4 cell line. Cells:
(§3) MT-4 cells (Miyoshi et al., 1982) were grown and maintained in RPMI 1640 medium supplemented with 10% heat-inactivated fetal calf serum, 2 mM I-glutamine, 0.1% sodium bicarbonate, and 20 μg of gentamicin per ml. Alternatively, the MT-4 cells may also be grown in RPMI 1640 medium supplemented with 10% FCS and 20 μg/ml of gentamicin (RPMI-complete).

[2] = test system: HIV-1 (IIIB), HIV-1 (NL4.3); test: microbe, parasite or virus in culture; assay type: cell-based; conditions: for EC50: Human immunodeficiency virus 1, IIIB, MT4, MT-4 cells, 50% protection against HIV-induced cytopathogenic effect, MTT; for SI: selectivity index, ratio of CC50 to EC50
Protocol: as §1, §2, §3
The HIV-1 (IIIB) strain (Popovic et al., 1984) as well as the HIV-1 (NL4.3) strain (Adachi et al., J. Virol. 59, 284-291 (1986)) were used.

[3] = molecular target: LEDGF/p75-HIV-1 integrase interaction (Human immunodeficiency virus type 1 group M subtype B (isolate HXB2) (HIV-1), UniProt P04585); test: AlphaScreen assay of LEDGF-integrase interaction inhibition; assay type: binding
Protocol: Alphascreen Assay to Measure the LEDGF-Integrase Interaction Inhibitory Activity of Compounds of the Invention
The AlphaScreen assay was performed according to the manufacturer's protocol (Perkin Elmer, Benelux). Reactions were performed in 25 μl final volume in 384-well Optiwell™ microtiter plates (Perkin Elmer). The reaction buffer contained 25 mM Tris-HCl (pH 7.4), 150 mM NaCl, 1 mM MgCl2, 0.01% (v/v) Tween-20 and 0.1% (w/v) bovine serum albumin. His6-tagged integrase (300 nM final concentration) was incubated with the compounds for 30 min at 4° C. The compounds were added at varying concentrations spanning a wide range from 0.1 up to 100 μM. Afterwards 100 nM flag-LEDGF/p75 was added and incubation was prolonged for an additional hour at 4° C. Subsequently 5 μl of Ni-chelate-coated acceptor beads and 5 μl anti-flag donor beads were added to a final concentration of 20 μg/ml of both beads. Proteins and beads were incubated for 1 h at 30° C. in order to allow association to occur. Exposure of the reaction to direct light was omitted as much as possible and the emission of light from the acceptor beads was measured in the EnVision plate reader (Perkin Elmer, Benelux) and analyzed using the EnVision manager software. IN/DNA binding was analyzed in a similar setting using His6-tagged integrase (1 μM final concentration) and an oligodeoxynucleotide mimicking the IN ELISA oligonucleotide substrate (30 nM final concentration). Counterscreens with JPO2 or PogZ, respectively, were essentially performed as described previously.
His6-tagged HIV-1 integrase, 3xflag-tagged LEDGF/p75, MBP-JPO2 and MBP-PogZ were purified for AlphaScreen applications as described previously 23,25,56.

[4] = His6-tagged integrase 300 nM, flag-LEDGF/p75 100 nM, read-out: Alphascreen IC50

SMILES	CC50 [1] [µM]	EC50 [2] [µM]	SI [2]	IC50 [3, 4] [µM]	IC50 [3] [µM]
CCCC(C(=O)O)c1c(C)nc2sc3c(c2c1-c1cccc(C)c1)CCCC3 (stereo not shown) [Cpd 141, 2-[2-Methyl-4-(m-tolyl)-5,6,7,8-tetrahydro[1]benzothieno[2,3-b]pyridin-3-yl]pentanoic acid]	55.5	14.8	4	23.7	
CCCC(C(=O)O)c1c(C)nc2scc(-c3ccccc3)c2c1-c1ccc(C)cc1 (stereo not shown) [Cpd 143]	66	> 66		49.2	
CCCC(C(=O)O)c1c(C)nc2sc3c(c2c1-c1cccc(OC)c1)CCCC3 (stereo not shown) [Cpd 144, 2-[2-Methyl-4-(m-anisyl)-5,6,7,8-tetrahydro[1]benzothieno[2,3-b]pyridin-3-yl]pentanoic acid]	63	20	3		6.64
CCCC(C(=O)O)c1c(C)nc2sc3c(c2c1-c1ccc(OC)c(OC)c1)CCCC3 (stereo not shown) [Cpd 145, 2-[2-Methyl-4-(3,4-dimethoxyphenyl)-5,6,7,8-tetrahydro[1]benzothieno[2,3-b]pyridin-3-yl]pentanoic acid]	> 125	123	>1	29.6	
CCCC(C(=O)O)c1c(C)nc2sc3c(c2c1-c1ccc2c(c1)OCO2)CCCC3 (stereo not shown) [Cpd 146, 2-[2-Methyl-4-(benzo[d][1,3]dioxol-5-yl)-5,6,7,8-tetrahydro[1]benzothieno[2,3-b]pyridin-3-yl]pentanoic acid]	124	2.98	42	4.76	
Cc1ccc(-c2c(C(CCCC(F)(F)F)C(=O)O)c(C)nc3sc4c(c23)CCCC4)cc1 (stereo not shown) [Cpd 147, 2-[2-Methyl-4-(p-tolyl)-5,6,7,8-tetrahydro[1]benzothieno[2,3-b]pyridin-3-yl]-6,6,6-trifluorohexanoic acid]	41.5	8.79	5	23.7	
CCCC(C(=O)O)c1c(C)nc2sc3c(c2c1-c1ccc(Cl)cc1)CCCC3 (stereo not shown) [Cpd 148, 2-[2-Methyl-4-(4-chlorophenyl)-5,6,7,8-tetrahydro[1]benzothieno[2,3-b]pyridin-3-yl]pentanoic acid]	70	0.53	132	2.19	
CCCC(C(=O)O)c1c(C)nc2sc3c(c2c1-c1ccc(CC)cc1)CCCC3 (stereo not shown) [Cpd 149, 2-[2-Methyl-4-(4-ethylphenyl)-5,6,7,8-tetrahydro[1]benzothieno[2,3-b]pyridin-3-yl]pentanoic acid]	67	> 67		74.4	
CCCC(C(=O)O)c1c(C)nc2sc3c(c2c1-c1cccnc1)CCCC3 (stereo not shown) [Cpd 150, 2-[2-Methyl-4-(pyridin-3-yl)-5,6,7,8-tetrahydro[1]benzothieno[2,3-b]pyridin-3-yl]pentanoic acid]	38.5	0.78	49	1.37	
CCCC(C(=O)O)c1c(C)nc2sc3c(c2c1-c1ccc(OC(F)(F)F)cc1)CCCC3 (stereo not shown) [Cpd 151, 2-[2-Methyl-4-(4-trifluoromethoxyphenyl)-5,6,7,8-tetrahydro[1]benzothieno[2,3-b]pyridin-3-yl]pentanoic acid]	48	8	6	21.5	
CCCC(C(=O)O)c1c(C)nc2sc3c(c2c1-c1ccccc1F)CCCC3 (stereo not shown) [Cpd 153, 2-[2-Methyl-4-(2-fluorophenyl)-5,6,7,8-tetrahydro[1]benzothieno[2,3-b]pyridin-3-yl]pentanoic acid]	> 125	17	>8	43.6	
CCCC(C(=O)O)c1c(C)nc2sc3c(c2c1-c1cc2ccccc2o1)CCCC3 (stereo not shown) [Cpd 154, 2-[2-Methyl-4-(benzofuran-2-yl)-5,6,7,8-tetrahydro[1]benzothieno[2,3-b]pyridin-3-yl]pentanoic acid]	90.5	6.28	14	8.12	
Cc1ccc(-c2c(C(CCc3ccccc3)C(=O)O)c(C)nc3sc4c(c23)CCCC4)cc1 (stereo not shown) [Cpd 155, 2-[2-Methyl-4-(p-tolyl)-5,6,7,8-tetrahydro[1]benzothieno[2,3-b]pyridin-3-yl]-4-phenylbutanoic acid]	22	> 22		81.9	
Cc1ccc(-c2c(C(C(=O)O)C(C)C)c(C)nc3sc4c(c23)CCCC4)cc1 (stereo not shown) [Cpd 156, 2-[2-Methyl-4-(p-tolyl)-5,6,7,8-tetrahydro[1]benzothieno[2,3-b]pyridin-3-yl]-3-methylbutanoic acid]	98	> 98		59.6	
CCC(C)C(C(=O)O)c1c(C)nc2sc3c(c2c1-c1ccc(C)cc1)CCCC3 (stereo not shown) [Cpd 157, 2-[2-Methyl-4-(p-tolyl)-5,6,7,8-tetrahydro[1]benzothieno[2,3-b]pyridin-3-yl]-3-methylpentanoic acid]	35	> 35		26.4	
Cc1ccc(-c2c(C(CCC(F)(F)F)C(=O)O)c(C)nc3sc4c(c23)CCCC4)cc1 (stereo not shown) [Cpd 158, 2-[2-Methyl-4-(p-tolyl)-5,6,7,8-tetrahydro[1]benzothieno[2,3-b]pyridin-3-yl]-5,5,5-trifluoropentanoic acid]	58.5	5.48	11	13.5	
C#CCC(C(=O)O)c1c(C)nc2sc3c(c2c1-c1ccc(C)cc1)CCCC3 (stereo not shown) [Cpd 159, 2-[2-Methyl-4-(p-tolyl)-5,6,7,8-tetrahydro[1]benzothieno[2,3-b]pyridin-3-yl]-pent-4-yn-oic acid]	99.5	7.54	13	13.3	
CCCC(C(=O)O)c1c(C)nc2sc3c(c2c1-c1ccc(C)cc1OC)CCCC3 (stereo not shown) [Cpd 160, 2-[2-methyl-4-(2-methoxy-4-methylphenyl)-5,6,7,8-tetrahydro[1]benzothieno[2,3-b]pyridin-3-yl]pentanoic acid]	74	14.4	5	17.7	
CCCC(C(=O)O)c1c(C)nc2sc3c(c2c1-c1ccc(C)cc1O)CCCC3.N (stereo not shown) [Cpd 161, 2-[2-Methyl-4-(2-hydroxy-4-methylphenyl)-5,6,7,8-tetrahydro[1]benzothieno[2,3-b]pyridin-3-yl]pentanoate ammonium salt]	157	0.147	1061		0.0554
Cc1ccc(-c2c(C(CC(C)(C)C)C(=O)O)c(C)nc3sc4c(c23)CCCC4)cc1 (stereo not shown) [Cpd 162, 2-[2-Methyl-4-(p-tolyl)-5,6,7,8-tetrahydro[1]benzothieno[2,3-b]pyridin-3-yl]-4,4-dimethylpentanoic acid]	71.7	0.33	217	1.57	
CCCC(C(=O)O)c1c(C)nc2sc3c(c2c1-c1ccc(C)cc1)CCN(Cc1ccccc1)C3 (stereo not shown) [Cpd 163, 2-[7-Benzyl-2-methyl-4-(p-tolyl)-5,6,7,8-tetrahydro-9-thia-1,7-diaza-fluoren-3-yl]pentanoic acid]	23	> 23		4.5	
Cc1ccc(-c2c(C(CC3CC3)C(=O)O)c(C)nc3sc4c(c23)CCCC4)cc1 (stereo not shown) [Cpd 165, 2-[2-Methyl-4-(p-tolyl)-5,6,7,8-tetrahydro[1]benzothieno[2,3-b]pyridin-3-yl]-3-cyclopropylpropanoic acid]	89	0.867	102	< 1	
